≈ marks a conversion by molar mass, not a printed value. Where “and” joins values, the source holds several entries; their conditions need not be identical. Equal entries are not always repeated. Where two headings read alike, the source gives them in different places.
Columns and labels:
Leptosphaeria nodorum [1] = assay: Greenhouse test, Wheat Septoria nodorum (WSN); conditions: Foliar application, 2 day residual (inoculation 2 days after application)
Botrytis cinerea = assay type: cell-based
Pyrenophora teres = assay type: cell-based
Leptosphaeria nodorum [2] = assay: MIC serial dilution test, Leptosphaeria nodorum (LEPTNO); assay type: cell-based
[3] = test system: Magnaporthe grisea f. sp. oryzae; assay type: cell-based; conditions: total inhibition of mycelial growth; V8 nutrient solution; 6-12 days incubation, 18-25° C.; visual inspection
Rhizoctonia solani = assay type: cell-based
Alternaria solani = assay type: cell-based
Phytophthora infestans = assay type: cell-based; conditions: total inhibition of mycelial growth; V8 nutrient solution; 6-12 days incubation, 18-25° C.; visual inspection
Puccinia recondita = conditions: in vivo
[4] = test system: Erysiphe graminis DC. f.sp. tritici E. Marchal; conditions: in vivo
[5] = […], V8 nutrient solution, 6-12 days incubation, 18-25° C., visual inspection
[6] = total inhibition of mycelial growth, V8 nutrient solution, 6-12 days incubation, 18-25° C., visual inspection

SMILES | Disease control (% efficacy) WSN 2 da R (Leptosphaeria nodorum [1]; 25 ppm) | Disease control (% efficacy) WSN 2 da R (Leptosphaeria nodorum [1]; 100 ppm) | MIC (Minimum Inhibitory Concentration) BOTRCI (Botrytis cinerea; [5]) | MIC (Minimum Inhibitory Concentration) PYRNTE (Pyrenophora teres) | MIC (Minimum Inhibitory Concentration) LEPTNO (Leptosphaeria nodorum [2]; [6]) | MIC (Minimum Inhibitory Concentration) PYRIOR [3] | MIC (Minimum Inhibitory Concentration) RHIZSO (Rhizoctonia solani; [5]) | MIC (Minimum Inhibitory Concentration) ALTESO (Alternaria solani) | MIC (Minimum Inhibitory Concentration) PHYTIN (Phytophthora infestans) | MIC (Minimum Inhibitory Concentration) PYRNTE (Pyrenophora teres; [5]) | Disease control (% efficacy) WLR 2 da R (Puccinia recondita) | MIC (Minimum Inhibitory Concentration) ALTESO (Alternaria solani; [5]) | Disease control (% efficacy) WPM 2 da R [4] | Disease control (% efficacy) WLR 2 da C (Puccinia recondita) | MIC (Minimum Inhibitory Concentration) BOTRCI (Botrytis cinerea) | MIC (Minimum Inhibitory Concentration) LEPTNO (Leptosphaeria nodorum [2]) | MIC (Minimum Inhibitory Concentration) RHIZSO (Rhizoctonia solani)
Fc1cccc(Cl)c1-c1c(Cl)nc2ncnn2c1N1CCCC(F)C1 (stereo not drawn) [Example 3, 5-chloro-6-(2-chloro-6-fluorophenyl)-7-N-(3-fluoropiperid-1-yl)-[1,2,4]triazolo[1,5-a]pyrimidine] | 0% | 92% | 12.5 mg/mL (≈ 32.5 mM) | 6.25 mg/mL (≈ 16.3 mM) | 50 mg/mL (≈ 130 mM) | 6.25 mg/mL (≈ 16.3 mM) | 50 mg/mL (≈ 130 mM) | 6.25 mg/mL (≈ 16.3 mM) | >100 mg/mL |  |  |  |  |  |  |  | 
FCC1CCN(c2c(-c3c(F)cccc3Cl)c(Cl)nc3ncnn23)CC1 [Example 2, 5-chloro-7-(4-fluoromethylpiperid-1-yl)-6-(2-chloro-6-fluorophenyl)-1,2,4-triazolo[1,5a]pyrimidine] | 17% | 83% | 3.13 mg/mL (≈ 7.86 mM) |  | >100 mg/mL | 0.78 mg/mL (≈ 1.96 mM) | >100 mg/mL |  | >100 mg/mL | 3.13 mg/mL (≈ 7.86 mM) | 100% | 0.39 mg/mL (≈ 0.979 mM) |  |  |  |  | 
Fc1cccc(Cl)c1-c1c(Cl)nc2ncnn2c1N1CCC(F)(F)CC1 [Example 5, 5-chloro-6-(2-chloro-6-fluorophenyl)-7-N-(4,4-difluoropiperid-1-yl)-[1,2,4]triazolo[1,5-a]pyrimidine] | 36% | 98% | 50 mg/mL (≈ 124 mM) |  | 12.5 mg/mL (≈ 31.1 mM) | 0.2 mg/mL (≈ 0.497 mM) | >100 mg/mL |  | >100 mg/mL | 3.13 mg/mL (≈ 7.78 mM) |  | <0.05 mg/mL | 74% and 94% and 84% | 10% and 0% |  |  | 
FCC1CCN(c2c(-c3c(F)cc(F)cc3F)c(Cl)nc3ncnn23)CC1 [Example 6, 5-chloro-7-N-(4-fluoromethylpiperid-1-yl)-6-(2,4,6-trifluorophenyl)-[1,2,4]triazolo[1,5-a]pyrimidine] | 63% | 99% |  | 3.13 mg/mL (≈ 7.83 mM) |  | 0.78 mg/mL (≈ 1.95 mM) |  | 0.39 mg/mL (≈ 0.976 mM) | >100 mg/mL |  | 100% |  |  | 100% and 98% | 3.13 mg/mL (≈ 7.83 mM) | >100 mg/mL | >100 mg/mL
Fc1c(F)c(F)c(-c2c(Cl)nc3ncnn3c2N2CCCC(F)C2)c(F)c1F (stereo not drawn) [Example 4, 5-chloro-7-N-(3-fluoropiperid-1-yl)-6-(pentafluorophenyl)-[1,2,4]triazolo[1,5-a]pyrimidine] | 0% | 0% | 12.5 mg/mL (≈ 29.6 mM) |  | 50 mg/mL (≈ 119 mM) | 1.56 mg/mL (≈ 3.7 mM) | 6.25 mg/mL (≈ 14.8 mM) |  | 100 mg/mL (≈ 237 mM) | 12.5 mg/mL (≈ 29.6 mM) |  | 3.13 mg/mL (≈ 7.42 mM) |  |  |  |  | 
Fc1cc(F)c(-c2c(Cl)nc3ncnn3c2N2CCC(F)CC2)c(F)c1 [Example 1, 5-chloro-7-(4-fluoropiperid-1-yl)-6-(2,4,6-trifluorophenyl)-1,2,4-triazolo[1,5a]pyrimidine] | 54% | 100% | 3.13 mg/mL (≈ 8.11 mM) | 1.56 mg/mL (≈ 4.04 mM) | 12.5 mg/mL (≈ 32.4 mM) | 1.56 mg/mL (≈ 4.04 mM) | 12.5 mg/mL (≈ 32.4 mM) |  | 50 mg/mL (≈ 130 mM) |  |  | 0.2 mg/mL (≈ 0.518 mM) | 88% and 100% |  |  |  | 

Source: patent publication US6380202B1, “Fungicidal fluoro-substituted 7-heterocyclyl-triazolopyrimidines” (BASF Aktiengesellschaft, priority 1998, dated 2002)
